We go through 18 compounds from US20080275085A1, “Piperidine derivative and use thereof” (priority 2007, published 2008).

Broadly, the IC50 is the concentration that inhibits the measured activity by half. High values mean weaker potency, low ones greater potency. One may read the melting point as the temperature, or range, at which the solid turns liquid.

Where a name gives a salt, the structure may show the parent alone.

T1 sequence (P25103 whole entry): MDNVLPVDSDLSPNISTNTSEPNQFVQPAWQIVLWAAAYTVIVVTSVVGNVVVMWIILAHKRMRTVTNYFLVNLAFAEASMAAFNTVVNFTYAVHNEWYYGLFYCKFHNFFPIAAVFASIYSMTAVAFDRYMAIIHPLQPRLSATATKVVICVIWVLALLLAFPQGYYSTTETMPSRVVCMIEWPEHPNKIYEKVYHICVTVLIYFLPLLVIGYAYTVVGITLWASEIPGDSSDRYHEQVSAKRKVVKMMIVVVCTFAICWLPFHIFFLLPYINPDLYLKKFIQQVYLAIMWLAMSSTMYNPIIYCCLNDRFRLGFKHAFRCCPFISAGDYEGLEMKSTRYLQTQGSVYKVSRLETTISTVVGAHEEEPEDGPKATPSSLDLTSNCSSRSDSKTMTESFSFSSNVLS

The first series has as its target T1, substance P receptor (Homo sapiens, UniProt P25103).
T1 construct: The receptor was prepared from human lymphoblast cells (IM-9); endogenous in cells; host or cells: IM-9 human lymphoblast cells (membrane fraction, 100,000xG precipitate)
As to the kind of experiment: Radioligand receptor binding inhibitory activity (125I-BHSP binding, receptor from IM-9 cells). The note with it: receptor from human lymphoblast cells (IM-9); radioligand 125I-BHSP; 25° C., 30 min. Here is the method: Radioligand Receptor Binding Inhibitory Activity (Binding Inhibitory Activity Using Receptor from Human Lymphoblast Cells (IM-9))
The method of M. A. Cascieri et al., “Molecular Pharmacology, vol. 42, p. 458 (1992)” was modified and used. The receptor was prepared from human lymphoblast cells (IM-9).
IM-9 cells (2×10^5 cells/mL) were inoculated and incubated for 3 days, which was then subjected to centrifugation for 10 min. at 500×G to give cell pellets. The obtained pellets were washed with PBS (GIBCO), disrupted in buffer A (50 mM tris.hydrochloric acid buffer (pH 7.4) containing 120 mM sodium chloride, 5 mM potassium chloride, 2 μg/mL chymostatin, 40 μg/mL bacitracin, 40 μg/mL APMSF, 1 mM ethylenediamine tetra acetic acid) using a polytron.homogenizer [manufactured by Kinematika, Germany], and centrifuged at 100,000×G for 40 min. The precipitated fraction was suspended in buffer B (50 mM Tris-HCl (pH 7.4), 0.02% bovine serum albumin, 2 μg/mL chymostatin, 40 μg/mL bacitracin, 40 μg/mL APMSF, 3 mM MgCl2), which was then cryopreserved (−80° C.) as a receptor specimen.
Buffer B (50 μL) was added to a 96 well microassay plate (CORNING). Thereto was added 50 μL of membrane preparation suspended in buffer B at 250 μg/mL. A measurement buffer (50 μL) containing 2% dimethyl sulfoxide was added to examine total binding; 4 μM unlabeled SP (50 μL) diluted with a measurement buffer containing 2% dimethyl sulfoxide was added to examine non-specific binding; and 50 μL of a test compound (containing 2% dimethyl sulfoxide) diluted with a measurement buffer was added to examine binding inhibitory activity of the test compound. In addition, […] ^125I-BHSP solution (50 μL) was added to each well.
After reaction at 25° C. for 30 min, the cells were rapidly filtered through a GF/C filter plate (PerkinElmer) using a cell harvester (manufactured by PerkinElmer) to quench the reaction, and washed 10 times with 250 μL of 50 mM tris-HCl buffer (pH 7.4) containing 0.02% bovine serum albumin. The GF/C filter plate was dried, MicroScinti 0 (20 μL) was added, and the radioactivity was measured with TopCount (manufactured by PerkinElmer). The GF/C filter plate was immersed in 0.3% polyethylene imine for one day before use.
Specific binding is a value obtained by subtracting nonspecific binding from total binding. The binding inhibitory activity of a test compound is shown by a ratio of a value obtained by subtracting a measurement value with addition of a test compound from the total binding, relative to specific binding.
The antagonistic activity of the compounds obtained in the Examples was determined as a concentration necessary for causing 50% inhibition (IC50 value) under the above-described conditions, and the results shown in Table 34 were obtained.
The radio ligand means substance P labeled with [^125I].
`Cc1cc(F)ccc1[C@H]1CN(C(=O)CN2C(=O)OC(C)(C)C2=O)CC[C@@H]1C(=O)N(C)Cc1cc(C(F)(F)F)cc(C(F)(F)F)c1` [Example 148, (3S,4S)—N-[3,5-bis(trifluoromethyl)benzyl]-1-[(5,5-dimethyl-2,4-dioxo-1,3-oxazolidin-3-yl)acetyl]-3-(4-fluoro-2-methylphenyl)-N-methylpiperidine-4-carboxamide] yielded an IC50 of 0.06 nM.

`Cc1cc(F)ccc1[C@H]1CN(C(=O)C2CCN(C(=O)CO)CC2)CC[C@@H]1C(=O)N(C)Cc1cc(C(F)(F)F)cc(C(F)(F)F)c1` [Example 149, (3S,4S)—N-[3,5-bis(trifluoromethyl)benzyl]-3-(4-fluoro-2-methylphenyl)-1-[(1-glycoloylpiperidin-4-yl)carbonyl]-N-methylpiperidine-4-carboxamide] returned an IC50 of 0.015 nM.

For `Cc1cc(F)ccc1[C@H]1CN(C(=O)C2CCN(C(=O)[C@H](C)O)CC2)CC[C@@H]1C(=O)N(C)Cc1cc(C(F)(F)F)cc(C(F)(F)F)c1` [Example 150, (3S,4S)—N-[3,5-bis(trifluoromethyl)benzyl]-3-(4-fluoro-2-methylphenyl)-1-({1-[(2S)-2-hydroxypropanoyl]piperidin-4-yl}carbonyl)-N-methylpiperidine-4-carboxamide], the IC50 came out at 0.033 nM.

`Cc1cc(F)ccc1[C@H]1CN(C(=O)C2CCN(C(=O)[C@@H](C)O)CC2)CC[C@@H]1C(=O)N(C)Cc1cc(C(F)(F)F)cc(C(F)(F)F)c1` [Example 151, (3S,4S)—N-[3,5-bis(trifluoromethyl)benzyl]-3-(4-fluoro-2-methylphenyl)-1-({1-[(2R)-2-hydroxypropanoyl]piperidin-4-yl}carbonyl)-N-methylpiperidine-4-carboxamide] yielded an IC50 of 0.02 nM.

Compound `Cc1cc(F)ccc1[C@H]1CN(C(=O)C2CCN(C(=O)CO)CC2)CC[C@@H]1C(=O)N(C)[C@@H](C)c1cc(C(F)(F)F)cc(C(F)(F)F)c1` [Example 152, (3S,4S)—N-{(1S)-1-[3,5-bis(trifluoromethyl)phenyl]ethyl}-3-(4-fluoro-2-methylphenyl)-1-[(1-glycoloylpiperidin-4-yl)carbonyl]-N-methylpiperidine-4-carboxamide] returned an IC50 of 0.015 nM.

For `Cc1cc(F)ccc1[C@H]1CN(C(=O)CN2C(=O)OC(C)(C)C2=O)CC[C@@H]1C(=O)N(C)[C@@H](C)c1cc(C(F)(F)F)cc(C(F)(F)F)c1` [Example 154, (3S,4S)—N-{(1S)-1-[3,5-bis(trifluoromethyl)phenyl]ethyl}-1-[(5,5-dimethyl-2,4-dioxo-1,3-oxazolidin-3-yl)acetyl]-3-(4-fluoro-2-methylphenyl)-N-methylpiperidine-4-carboxamide], the IC50 was 0.097 nM.

For `Cc1cc(F)ccc1[C@H]1CN(C(=O)c2cncnc2)CC[C@@H]1C(=O)N(C)[C@@H](C)c1cc(C(F)(F)F)cc(C(F)(F)F)c1` [Example 158, (3S,4S)—N-{(1S)-1-[3,5-bis(trifluoromethyl)phenyl]ethyl}-3-(4-fluoro-2-methylphenyl)-N-methyl-1-(pyrimidin-5-ylcarbonyl)piperidine-4-carboxamide], the half-inhibitory concentration (IC50) turned out to be 0.033 nM.

`Cc1cc(F)ccc1[C@H]1CN(C(=O)CCS(C)(=O)=O)CC[C@@H]1C(=O)N(C)[C@@H](C)c1cc(C(F)(F)F)cc(C(F)(F)F)c1` [Example 160, (3S,4S)—N-{(1S)-1-[3,5-bis(trifluoromethyl)phenyl]ethyl}-3-(4-fluoro-2-methylphenyl)-N-methyl-1-[3-(methylsulfonyl)propanoyl]piperidine-4-carboxamide] had an IC50 of 0.032 nM.

Consider `Cc1cc(F)ccc1[C@H]1CN(C(=O)C(N)=O)CC[C@@H]1C(=O)N(C)[C@@H](C)c1cc(C(F)(F)F)cc(C(F)(F)F)c1` [Example 178, (3S,4S)-1-[amino(oxo)acetyl]-N-{(1S)-1-[3,5-bis(trifluoromethyl)phenyl]ethyl}-3-(4-fluoro-2-methylphenyl)-N-methylpiperidine-4-carboxamide], for which the IC50 was 0.017 nM.

In the case of `Cc1cc(F)ccc1[C@H]1CN(S(C)(=O)=O)CC[C@@H]1C(=O)N(C)[C@@H](C)c1cc(C(F)(F)F)cc(C(F)(F)F)c1` [Example 179, (3S,4S)—N-{(1S)-1-[3,5-bis(trifluoromethyl)phenyl]ethyl}-3-(4-fluoro-2-methylphenyl)-N-methyl-1-(methylsulfonyl)piperidine-4-carboxamide], the IC50 came out at 0.049 nM.

`Cc1cc(F)ccc1[C@H]1CN(CCS(C)(=O)=O)CC[C@@H]1C(=O)N(C)[C@@H](C)c1cc(C(F)(F)F)cc(C(F)(F)F)c1` [Example 180, (3S,4S)—N-{(1S)-1-[3,5-bis(trifluoromethyl)phenyl]ethyl}-3-(4-fluoro-2-methylphenyl)-N-methyl-1-[2-(methylsulfonyl)ethyl]piperidine-4-carboxamide monohydrochloride] yielded an IC50 of 0.023 nM.

Test system in the next series: not given
Assay: not given
Details: not given
Consider `Cc1cc(F)ccc1[C@H]1CN(CC(N)=O)CC[C@@H]1C(=O)N(C)[C@H](C)c1cc(C(F)(F)F)cc(C(F)(F)F)c1.Cl` (hydrate or solvate), for which the melting point was in the range of 133 to 139 °C.

The compound `Cc1cc(F)ccc1[C@H]1CN(C(=O)C2CCN(C(=O)CO)CC2)CC[C@@H]1C(=O)N(C)[C@@H](C)c1cc(C(F)(F)F)cc(C(F)(F)F)c1` (hydrate or solvate) [Example 152, (3S,4S)—N-{(1S)-1-[3,5-bis(trifluoromethyl)phenyl]ethyl}-3-(4-fluoro-2-methylphenyl)-1-[(1-glycoloylpiperidin-4-yl)carbonyl]-N-methylpiperidine-4-carboxamide] gave a melting point of 108 to 116 °C.

Compound `Cc1cc(F)ccc1[C@H]1CN(C(=O)c2cncnc2)CC[C@@H]1C(=O)N(C)[C@@H](C)c1cc(C(F)(F)F)cc(C(F)(F)F)c1` (hydrate or solvate) [Example 158, (3S,4S)—N-{(1S)-1-[3,5-bis(trifluoromethyl)phenyl]ethyl}-3-(4-fluoro-2-methylphenyl)-N-methyl-1-(pyrimidin-5-ylcarbonyl)piperidine-4-carboxamide] registered a melting point of 185 to 188 °C.

In turn, `Cc1cc(F)ccc1[C@@H]1CN(C2CCN(C(=O)C(N)=O)CC2)CC[C@H]1C(=O)N(C)Cc1cc(C(F)(F)F)cc(C(F)(F)F)c1` (relative stereo) (as salt: hydrochloride) (hydrate or solvate) [Example 108, (3R*,4R*)-1′-[amino(oxo)acetyl]-N-[3,5-bis(trifluoromethyl)benzyl]-3-(4-fluoro-2-methylphenyl)-N-methyl-1,4′-bipiperidine-4-carboxamide monohydrochloride] gave a melting point of 175 to 176 °C.

`Cc1cc(F)ccc1[C@@H]1CN(C2CCN(C(N)=O)CC2)CC[C@H]1C(=O)N(C)Cc1cc(C(F)(F)F)cc(C(F)(F)F)c1` (relative stereo) (as salt: hydrochloride) (hydrate or solvate) [Example 109, (3R*,4R*)—N^4-[3,5-bis(trifluoromethyl)benzyl]-3-(4-fluoro-2-methylphenyl)-N^4-methyl-1,4′-bipiperidine-1′,4-dicarboxamide monohydrochloride] showed a melting point of 175 to 178 °C.

With `Cc1cc(F)ccc1[C@@H]1CN(CC(N)=O)CC[C@H]1C(=O)N(C)Cc1cc(C(F)(F)F)cc(C(F)(F)F)c1` (relative stereo) (as salt: hydrochloride) (hydrate or solvate) [Example 112, (3R*,4R*)-1-(2-amino-2-oxoethyl)-N-[3,5-bis(trifluoromethyl)benzyl]-3-(4-fluoro-2-methylphenyl)-N-methylpiperidine-4-carboxamide monohydrochloride], the melting point was 175 to 177 °C.

Consider `Cc1cc(F)ccc1[C@@H]1CN(CCC(C)(C)O)CC[C@H]1C(=O)N(C)Cc1cc(C(F)(F)F)cc(C(F)(F)F)c1` (relative stereo) (as salt: hydrochloride) (hydrate or solvate) [Example 123, (3R*,4R*)—N-[3,5-bis(trifluoromethyl)benzyl]-3-(4-fluoro-2-methylphenyl)-1-(3-hydroxy-3-methylbutyl)-N-methylpiperidine-4-carboxamide monohydrochloride], for which the melting point is 126 to 128 °C.
